Data as given in US20160242416A1, “FUNGICIDAL ISOXAZOLINE CARBINOLS” (E I DU PONT DE NEMOURS AND COMPANY, priority 2015, published 2016).

Experiments:
Botrytis cinerea = assay: Test B: gray mold, preventive spray on tomato seedlings; conditions: 10 ppm; gray mold on tomato; 100 = 100% disease control, 0 = no control
[1] = test system: Puccinia recondita f sp. tritici; assay: Test F: wheat leaf rust, preventive spray on wheat seedlings; conditions: 10 ppm; wheat leaf rust; 100 = 100% disease control, 0 = no control
Zymoseptoria tritici = assay: Test E: wheat leaf blotch, preventive spray on wheat seedlings; conditions: 10 ppm; wheat leaf blotch; 100 = 100% disease control, 0 = no control
Stagonospora nodorum = assay: Test D: wheat glume blotch, preventive spray on wheat seedlings; conditions: 10 ppm; wheat glume blotch; 100 = 100% disease control, 0 = no control
[2] = test system: Erysiphe graminis f sp. tritici; assay: Test G: wheat powdery mildew, preventive spray on wheat seedlings; conditions: 10 ppm; wheat powdery mildew; 100 = 100% disease control, 0 = no control

| Structure (SMILES) | Test B rating (% disease control) (Botrytis cinerea) [%] | Test F rating (% disease control) [1] [%] | Test E rating (% disease control) (Zymoseptoria tritici) [%] | Test D rating (% disease control) (Stagonospora nodorum) [%] | Test G rating (% disease control) [2] [%] |
| --- | --- | --- | --- | --- | --- |
| OC(Cn1cncn1)(C1=NOC(c2ccc(F)cc2)C1)c1ccc(Cl)cc1 (single isomer, unassigned) [Compound 159] | 0 | 0 | 0 | 0 | 97 |
| OC(Cn1cncn1)(C1=NOC(COCc2ccccc2)C1)c1ccc(Cl)cc1 (single isomer, unassigned) [Compound 58] | 0 | 0 | 0 | 0 | 68 |
| CS(=O)(=O)c1ccc(C2CC(C(O)(Cn3cncn3)c3ccc(Cl)cc3)=NO2)cc1 (single isomer, unassigned) [Compound 113] | 0 | 100 | 9 | 0 | 98 |
| CC(C)(C)C(O)(Cn1cncn1)C1=NOC(COc2ccc(Cl)nc2)C1 (single isomer, unassigned) [Compound 97] | 0 | 98 | 0 | 99 | 94 |
| OC(Cn1cncn1)(C1=NOC(c2ccc(Cl)cc2)C1)c1ccc(F)cc1 (single isomer, unassigned) [Compound 160] | 75 | 100 | 11 | 99 | 100 |
| CC(C)(C)C(O)(Cn1cncn1)C1=NOC(c2cnccn2)C1 (single isomer, unassigned) [Compound 169] | 0 | 0 | 4 | 9 | 0 |
| OC(Cn1cncn1)(C1=NOC(c2ccc(Cl)cc2)C1)C12CC3CC(CC(C3)C1)C2 (single isomer, unassigned) [Compound 39] | 0 | 0 | 18 | 87 | 73 |
| CC(C)(C)C(O)(Cn1cncn1)C1=NOC(COc2ccc(C(F)(F)F)cc2)C1 (single isomer, unassigned) [Compound 81] | 57 | 100 | 95 | 100 | 100 |
| CC(C)(C)C(O)(Cn1cncn1)C1=NOC(COC2CCCCC2)C1 (single isomer, unassigned) [Compound 92] | 0 | 0 | 3 | 10 | 13 |
| CC(C)(C)CC(O)(Cn1cncn1)C1=NOC(COc2ccc(Cl)cc2)C1 (single isomer, unassigned) [Compound 172] | 0 | 100 | 4 | 100 | 99 |
| CC(C)(C)C(O)(Cn1cncn1)C1=NOC(c2ccc(-n3cc(Br)cn3)cc2)C1 (single isomer, unassigned) [Compound 7] | 99 | 100 | 14 | 0 | 100 |
| OC(Cn1cncn1)(C1=NOC(Cn2ccc(C(F)(F)F)n2)C1)c1ccc(Cl)cc1 (single isomer, unassigned) [Compound 194] | 0 | 100 | 0 | 11 | 99 |
| OC(Cn1cncn1)(C1=NOC(CSc2ccccc2)C1)c1ccc(Cl)cc1 (single isomer, unassigned) [Compound 50] | 19 | 99 | 3 | 87 | 94 |
| CSc1ccc(C2CC(C(O)(Cn3cncn3)c3ccc(Cl)cc3)=NO2)cc1 (single isomer, unassigned) [Compound 107] | 0 | 100 | 58 | 32 | 99 |
